The values below come from patent US7304174B2, “CaSR antagonist” (Japan Tobacco Inc., priority 2003, dated 2007).

The structures appear in SMILES notation.

The subject of the assay is bone resorption. In words: Concomitant administration of test compound and estrogen: bone resorption marker blood ICTP. Format: in vivo, ovariectomized rats. To be noted: for Blood ICTP concentration: mean ± S.D., n = 5. The protocol: The 13-week-old ovariectomized rats were divided into 4 groups of a control group (Group A), an estrogen administration group (Group B), a test compound administration group (Group C), and a test compound and estrogen concomitant administration group (Group D). One sham control group (E group) subjected to a sham surgery was also established. Estradiol was dissolved in 5% benzyl alcohol-corn oil and subcutaneously administered to an estrogen administration groups (Group B and Group D) at the dose of 10 μg/kg. 5% Benzyl alcohol-corn oil was subcutaneously administered to groups (Group A and Group C) free from administration of estrogen. The compound of Example 1-1 was suspended in 0.5% methyl cellulose solution and orally administered to groups (Group C and Group D) to be administered with the test compound at the dose of 3 mg/kg. As regards the groups (Group A and Group B) free from administration of the test compound, 0.5% methyl cellulose solution was orally administered. On day 13 from the start of the administration, the blood was drawn in each group from the tail vein, and serum was obtained. ICTP, which is a blood bone resorption marker, was measured using a commercially available ELISA kit (“RatLaps ELISA kit”, Nordic Bioscience Diagnostics).

As to `Cc1ccc(CC(C)(C)NC[C@@H](O)CO[C@H](C)c2ccccc2-c2ccc(C(=O)O)c(C)c2)cc1F` [Example 1-1, 2′-[(1R)-[(2R)-3-[[1-(3-Fluoro-4-methylphenyl)-2-methylpropan-2-yl]amino]-2-hydroxypropoxy]ethyl]-3-methylbiphenyl-4-carboxylic acid], where the note is “Table 65, concomitant with estrogen”, the “Effect of concomitant administration on suppression of ICTP increase by estrogen” value is given as “did not show changes in the ability to suppress estrogen”. Also, the “Blood ICTP concentration” value was 21.77 ± 3.34 ng/mL (day 13, Group D: Example 1-1 3 mg/kg oral and estradiol 10 μg/kg s.c. concomitant); 26.10 ± 3.45 ng/mL (day 13, exclusive administration (Group B estradiol 10 μg/kg s.c.; Group C Example 1-1 3 mg/kg oral)).
